For assay [1], the target named is T1, Vanilloid receptor (Rattus norvegicus, UniProt Q9ERZ8+Q9WUD2+O35433). Nature of the assay: Ability to inhibit [Ca2+] influx neonatal rat cultured spinal sensory neurons. Format: functional.
Assay [2] has as its target T1, Vanilloid receptor. Nature of the assay: Ability to cause [Ca2+] influx in neonatal rat cultured spinal sensory neurons. Format: functional.

With `Oc1cc2c(cc1O)CN(C(=S)NCCc1ccc(Cl)cc1)CCC2` [CAPSAZEPINE], in assay [1], the half-maximal inhibitory concentration (IC50) worked out at 0.6 µM. The same compound displayed an EC50 in assay [2] above 100 µM.

With `CCC(CCc1ccc(O)c(OC)c1)N(CCc1ccccc1)/C(S)=N/CCc1ccccc1` (stereo not given), in assay [1], the IC50 is above 30 µM. This compound also had an EC50 in assay [2] above 100 µM.

With `CCC(CCc1ccc(O)c(OC)c1)OC(=O)NCCc1ccccc1` (stereo not given), the IC50 in assay [1] is above 30 µM. In addition, the EC50 in assay [2] was above 100 µM.

On to `COc1cc(CCC(CCc2ccccc2)O/C(S)=N/CCc2ccccc2)ccc1O` (stereo not given), for which, in assay [1], the IC50 amounted to 19.2 µM. The same compound came in with an EC50 in assay [2] above 100 µM.

Consider `COc1cc(CCCC(C)O/C(S)=N/CCc2ccccc2)ccc1O` (stereo not given), for which, in assay [1], the IC50 is above 30 µM. Further, the EC50 in assay [2] is above 100 µM.

In assay [1], `CCC(CCc1ccc(O)c(OC)c1)N(C)/C(S)=N/CCc1ccccc1` (stereo not given) displayed an IC50 of 27.2 µM. In assay [2], this compound returned an EC50 above 100 µM.

`COc1cc(CCC(CCCc2ccccc2)O/C(S)=N/CCc2ccccc2)ccc1O` (stereo not given) displayed an IC50 in assay [1] above 30 µM. Besides, the EC50 in assay [2] was above 100 µM.

With `CCCC(CCc1ccc(O)c(OC)c1)O/C(S)=N/CCc1ccccc1` (stereo not given), the IC50 in assay [1] amounted to 27.9 µM. Further, in assay [2], the EC50 was above 100 µM.

The compound `COc1cc(CCC(CCc2ccc(C(F)(F)F)cc2)O/C(S)=N/CCc2ccccc2)ccc1O` (stereo not given) came in with an IC50 in assay [1] of 10.7 µM. The compound further yielded an EC50 in assay [2] above 100 µM.

The compound `COc1cc(CCC(O/C(S)=N/CCc2ccccc2)c2ccccc2)ccc1O` (stereo not given) registered an IC50 in assay [1] above 30 µM. Besides, the EC50 in assay [2] was above 100 µM.

Take `COc1cc(CC(C)O/C(S)=N/CCc2ccccc2)ccc1O` (stereo not given): in assay [1], the 50% inhibitory concentration (IC50) is above 30 µM. The same compound came in with an EC50 in assay [2] above 100 µM.

Compound `CCC(CCc1ccc(O)c(OC)c1)CC(=O)NCCc1ccccc1` (stereo not given) gave an IC50 in assay [1] above 30 µM. This compound yielded an EC50 in assay [2] above 100 µM.

On to `CCC(CCc1ccc(O)c(OC)c1)NC(=O)NCCc1ccccc1` (stereo not given), for which, in assay [1], the IC50 is above 30 µM. The same compound yielded an EC50 in assay [2] above 100 µM.

`COc1cc(CCC(Cc2ccccc2)O/C(S)=N/CCc2ccccc2)ccc1O` (stereo not given) yielded an IC50 in assay [1] of 25 µM. The same compound came in with a half-maximal effective concentration (EC50) in assay [2] above 100 µM.

The compound `CCC(CCc1ccc(O)c(OC)c1)O/C(S)=N/CCc1ccccc1` (stereo not given) had an IC50 in assay [1] of 6.3 µM. The compound further showed an EC50 in assay [2] above 100 µM.

Consider `COc1cc(CCC(C)O/C(S)=N/CCc2ccccc2)ccc1O` (stereo not given), for which the IC50 in assay [1] turned out to be 9.9 µM. The half-maximal effective concentration (EC50) in assay [2] is above 100 µM.

Consider `CCC(CCc1ccc(O)c(OC)c1)C/C(S)=N/CCc1ccccc1` (stereo not given), for which the IC50 in assay [1] is above 30 µM. Besides, in assay [2], the EC50 is above 100 µM.

On to `CCC(CCc1ccc(O)c(OC)c1)/N=C(\S)NCCc1ccccc1` (stereo not given), for which, in assay [1], the 50% inhibitory concentration (IC50) stood at 28.5 µM. In assay [2], this compound gave an EC50 above 100 µM.

In assay [1], `CCC(CCc1ccc(O)c(OC)c1)N(Cc1ccccc1)/C(S)=N/CCc1ccccc1` (stereo not given) yielded an IC50 of 20.9 µM. This compound also gave an EC50 in assay [2] above 100 µM.

In assay [1], `COc1cc(CCCO/C(S)=N/CCc2ccccc2)ccc1O` had an IC50 above 30 µM. Further, the EC50 in assay [2] is above 100 µM.

As usually defined, the IC50 is the concentration needed to halve the response being measured. As a reminder, the EC50 is the concentration that produces a half-maximal response. The low end stands for greater potency, the high end for weaker potency.

The values are drawn from ChEMBL document CHEMBL1136430, “Chain-branched acyclic phenethylthiocarbamates as vanilloid receptor antagonists” (Bioorg Med Chem Lett, 2003).
